Results: patent US8628938B2, “Polynucleotide encoding UDP-glucuronyl transferase” (Suntory Holdings Limited, priority 2007, dated 2014)

B1: S1UGT: UDP-glucuronosyltransferase having the amino acid sequence of SEQ ID NO: 11, derived from Scutellaria laeteviolacea v. yakusimensis (protein, listed as Scutellaria sp.)
chain: MEDTIVIYTTPEHLNTMAVLAKFISKHHPSVPIILISTAAESAAASIAAVPSITYHRLPLPEIPPSLTKDRVELFFELPRLSNPNLRLALQEISQKARIRAFVIDFFCNAAFEVSTSLSIPTFYYFSSGSPTATLVLHFQTLDETIPGDLKDLDDFVEIPGLPPIYSLDIPVALLTRQSLVYQSSVDISKNLRKSAGFLVNGFDALEFRAKEAIVNGLCVPNGPTPPVYFIGPLVGDVDAKAGGEEHECLRWLDTQPSKSVIFLCFGRRGVFSAEQLKETAVALENSGHRFLWSVRNPPEIMKNSDEPDLDELLPEGFLERTKDRGFVIKSWAPQKEVLSHDSVGGFVTHCGRSSISEGVWFGVPMIGWPVDAEQKLNRTVLVEEMQVALPMEEAEGGFVTAAELEKRVRELMESKVGKAVRQRVGELKCSARAAVTGNGSSLSDFKKFLLATRD
B2: AmUGTcg10: UDP-glucuronosyltransferase having the amino acid sequence of SEQ ID NO: 13, derived from Antirrhinum majus (protein, listed as Antirrhinum majus)
chain: MEDTIVLYASAEHLNSMLLLGKLINKHHPTISVAIISTAPNAAASSVADVAAISYQQLKPATLPSDLTKNPIELFFEIPRLHNPNLLEALEELSLKSKVRAFVIDFFCNPAFEVSTSLNIPTYFYVSSGAFGLCGFLHFPTIDETVEKDIGELNDILEIPGCPPVLSSDFPKGMFFRKSNTYKHFLDTAKNMRRAKGIVVNAFDAMEFRAKEALVNNLCVPNSPTPPVFLVGPLVGASTTTKTTNEQHECLKWLDVQPDRSVIFLCFGRRGLFSADQLKEIAIGLENSGHRFLWSVRCPPSKPNSYNTDPDLDELLPEGFLSRTETRGFVIKSWAPQKEVLSHGAVGGFVTHCGRSSILEAVSFGVPMIGWPIYAEQRMNRVFMVEEMKVALQLDEVEEGFVAAVELEKRVKELMDSKNGRAVRQRVKEMKVAAEVAVEKGGSSVVALQRFVDMVVS
B3: PfUGT50: UDP-glucuronosyltransferase having the amino acid sequence of SEQ ID NO: 5, derived from Perilla frutescens a red-leaf variety (protein, listed as Perilla frutescens)
chain: MEGVILLYSSAEHLNSMLLLATFIAKHHPSIPITILSSADYSAAASVSTLPSITYRRLPPVAIPPDSIKNPVEAFFEIPRLQNPNLRVALEEISQKTRIRAFVIDFFCNSAFEVSTSLSIPTYFYVSTGSAGVCIFLYFPTTDETVATDIGDLRDFLEFPGSPIIHSSDLPQLTFFRRSNVFKHMLDTSKNMQKSSGILTNGFDAMEFRAKEALTNGLCVPNGPTPPVYLVGPLVAGSNAKKDHECLLWLDRQPSKSVVFLCFGRRGLFSGKQLREMAVALERSGYRFLWSVRNPPENRSPAEDPDLDELLPEGFLERTKDIGFVVKSWAPQKEVLSHDAVAGFVTHCGRSSILEALVNGKPMIGWPMYAEQRMNKVFMVDEMKVALPLEEEEDGFVTAVELEKRLRQLMESKTGRDVRHRVAEMKAAATAAMGENGSAVVALRKFIDSVTRD

Legend:
PfUGT50 = assay: UDP-glucuronosyltransferase activity assay (HPLC) with recombinant PfUGT50; assay type: biochemical, Perilla frutescens; conditions: 100 μM glycosyl acceptor substrate, 2 mM UDP-glucuronic acid, pH 7.5, 30° C., 30 minutes
Method: (§1) Escherichia coli BL21 (DE3) was transformed with each plasmid obtained in 4-(1) above. The transformant obtained was shake cultured overnight at 37° C. in 4 ml of LB medium (10 g/l tryptone, 5 g/l yeast extract, 1 g/l NaCl) supplemented with 50 μg/ml of ampicillin. The culture broth, 4 ml, which reached the stationary phase, was inoculated into 80 ml of the medium with the same composition, followed by shake culture at 37° C. When the cell turbidity (OD600) reached approximately 0.5, 0.4 mM IPTG (isopropyl-β-thiogalactopyranoside) in a final concentration was added to the medium, followed by shake culture at 22° C. for 20 hours. All of the subsequent procedures were performed at 4° C. The transformants cultured were centrifuged (7,000×g, 15 mins.) to collect the cells, and 2 ml/g cell of Buffer S (20 mM sodium phosphate buffer (pH 7.4), 20 mM imidazole, 0.5 M NaCl, 14 mM β-mercaptoethanol) was added to the cells for suspension. Subsequently, ultrasonication was performed (15 secs.×8) followed by centrifugation (15,000×g, 10 mins.). To the supernatant obtained, 0.12% (w/v) polyethyleneimine in a final concentration was added to […], which was then allowed to stand for 30 minutes. The mixture was centrifuged (15,000×g, 10 mins.) and the supernatant was recovered as a crude enzyme solution. The crude enzyme solution was applied to His SpinTrap (GE Healthcare), which had been equilibrated with Buffer S, and centrifuged (70×g, 30 secs.). After washing with 600 μl of Buffer S, the protein bound to the column was stepwise eluted with 600 μl each of Buffer S containing 100, 200 and 500 mM imidazole. The buffer in each fraction eluted was replaced by 20 mM potassium phosphate buffer (pH 7.5) containing 14 mM β-mercaptoethanol, using Microcon YM-30 (Amicon). […] These fractions were mixed and used for analysis.
(§2) Standard reaction conditions are as follows. A reaction solution (2 mM UDP-glucuronic acid, 100 μM glycosyl acceptor substrate, 50 mM potassium phosphate buffer (pH 7.5), enzyme solution), 50 μl, was prepared and the enzyme solution was added to initiate the reaction at 30° C. for 30 minutes. The reaction was stopped by adding 50 μl of 0.5% TFA in CH3CN and provided for HPLC analysis. The conditions for HPLC are as follows: column, Develosil C30-UG-5 (4.6×150 mm); eluant A, 0.1% TFA/H2O; eluant B, 0.08% TFA/90% CH3CN; conditions A for elution (except for aurone, catechin, coumarine and phenylpropanoid), 0 min/5% B→18 min/100% eluant B'18.1 min/5% B→25 min/5% B; conditions B for elution (aurone, catechin, coumarine and phenylpropanoid), 0 min/5% B→20 min/50% eluant B→20.5 min/5% B→25 min/5% B; flow rate, 1 ml/min; detection wavelength: 280 and 350 nm.

Sb7GAT = conditions: enzyme purified from Scutellaria baicalensis; Nagashima et al. 2000; cited from earlier work
S1UGT = assay: UDP-glucuronosyltransferase activity assay (HPLC) with recombinant S1UGT; assay type: biochemical, Scutellaria laeteviolacea v. yakusimensis; conditions: 100 μM glycosyl acceptor substrate, 2 mM UDP-glucuronic acid, pH 7.5, 30° C., 30 minutes
Method: as §1, §2

SiUGT23 = assay: UDP-glucuronosyltransferase activity assay (HPLC) with recombinant SiUGT23; assay type: biochemical, Sesamum indicum; conditions: 100 μM glycosyl acceptor substrate, 2 mM UDP-glucuronic acid, pH 7.5, 30° C., 30 minutes
Method: as §2
cDNA containing full-length ORF of SiUGT23 derived from Sesamum indicum was amplified by a gene-specific primer set (SEQ ID NOs: 24 and 25). cDNA synthesized using total RNA extracted from sesame seeds was used as a template. SiUGT23 was incorporated into Escherichia coli expression vector as in UGT of Perilla frutescens, Scutellaria laeteviolacea v. yakusimensis and Antirrhinum majus in EXAMPLE 1 and recombinant SiUGT23 protein was expressed in the same way to assay the enzyme activity.

AmUGTcg10 = assay: UDP-glucuronosyltransferase activity assay (HPLC) with recombinant AmUGTcg10; assay type: biochemical, Antirrhinum majus; conditions: 100 μM glycosyl acceptor substrate, 2 mM UDP-glucuronic acid, pH 7.5, 30° C., 30 minutes
Method: as §1, §2

[1] = Analysis of pH and temperature characteristics of the recombinant enzymes; assay type: biochemical; conditions: for reaction optimum temperature: activity assay for 30 minutes, reaction temperature 10 to 55° C.; for activity in an acidic region: reaction pH dependency
Method: Temperature stability was analyzed as follows. An enzyme solution was treated at 15 to 55° C. for an hour and then cooled to 4° C. Using the sample cooled, the residual activity was determined under standard reaction conditions. After 167 mM final concentration of a buffer solution (pH 4, 4.5, 5, Acetate-NaOH; pH 5.5, 6, 6.5, 7, 7.5, NaH2PO4-NaOH; pH 8, 8.5, 9, Tris-HCl) was added to the enzyme solution, the mixture was treated at 4° C. for an hour and then 500 mM final concentration of potassium phosphate buffer (pH 7.5) was added thereto. Using the sample treated, the residual activity was determined under standard reaction conditions. The reaction was performed under standard reaction conditions where the reaction temperature was set at 10 to 55° C. to analyze the reaction temperature dependency. Reaction pH dependency was analyzed under standard reaction conditions using a buffer solution (pH 4, 4.5, 5, Acetate-NaOH; pH 5.5, 6, 6.5, 7, 7.5, NaH2PO4—NaOH; pH 8, 8.5, 9, Tris-HCl) in place of potassium phosphate buffer (pH 7.5). […] PfUGT50 was stable at 30° C. or lower (an hour, pH 7.5) and the reaction optimum temperature was 30° C. in the activity assay for 30 minutes. […] This enzyme was stable at 40° C. or lower (an hour, pH 7.5) and the reaction optimum temperature was 35° C. in the activity assay for 30 minutes. […] This enzyme was stable at 30° C. or lower (an hour, pH 7.5) and the reaction optimum temperature was 45° C. in the activity assay for 30 minutes. These properties were similar to known GT involved in plant secondary metabolism.

Molecule | relative activity to each substrate, taking the activity to scutellarein as 100% (PfUGT50) [%] | action of Sb7GAT on the substrate (Sb7GAT) | relative activity to each substrate, taking the activity to scutellarein as 100% (S1UGT) [%] | relative activity to each substrate, taking the activity to scutellarein as 100% (SiUGT23) [%] | relative activity to each substrate, taking the activity to scutellarein as 100% (AmUGTcg10) [%] | reaction optimum temperature [1] [°C] | temperature at which the enzyme was stable (residual activity) ([1]; an hour, pH 7.5, treated at 15 to 55° C.) [°C] | activity in an acidic region [1]
O=c1cc(-c2ccc(O)cc2)oc2cc(O)cc(O)c12 [apigenin] | 44 | does not act | 3 | 7 | 40 |  |  | 
O=c1cc(-c2ccccc2)oc2cc(O)c(O)c(O)c12 [baicalein] | 73 | acts | 63 | 24 | 22 |  |  | 
O=c1cc(-c2ccc(O)c(O)c2)oc2cc(O)cc(O)c12 [luteolin] | 41 | does not act | 0.6 | 29 | 34 |  |  | 
O=c1c(O)c(-c2ccc(O)c(O)c2)oc2cc(O)cc(O)c12 [quercetin] | 26 | not | 1 | 4 | 4 |  |  | 
B1 |  |  |  |  |  | 35 | ≤ 40 | little activity
B2 |  |  |  |  |  | 45 |  | little activity
B3 |  |  |  |  |  | 30 |  | little activity
